Compound | melting point [°C]
N#Cc1ccc2c(c1)C(=O)OC2 | 195 to 196
COP(=O)(OC)[C@H](C)NC(=O)[C@H](C)NC(=O)CNC(=O)CNC(=O)OCc1ccccc1 | 124 to 127
CCOC(=O)c1ccc(N2CCN(CC(=O)c3ccc(Cl)cc3)CC2)cc1 | 150 to 152
Cc1cc(Cl)cc(C(=O)NC(C)C2CC2)c1NC(=O)c1cc(Br)nn1-c1ccccc1Cl (stereo not given) | 180 to 181
CC(=N)Nc1cccc(F)c1 | 175 to 177
COc1ccc(N=Nc2ccc(O)c(C(=O)Nc3ccc4[nH]nnc4c3)c2)cc1 | 275 to 276
NC(=O)Oc1ccccc1-c1nc2ccc(OCc3c(F)cccc3F)cc2s1 | 216
O=C(c1ccc([N+](=O)[O-])c(OCC2CO2)c1)N1CCOCC1 (stereo not given) | 156 to 158
Oc1ccc2c(c1)COc1c-2cc2ccc(O)cc2c1-c1ccncc1 | > 250
CNC(=O)c1cnc2cccc(C)n2c1=O | 208 to 210
c1ccc(CCc2nc3cccc4c3n2CCC4)cc1 | 107 to 108
O=C(O)c1ccc(OCc2ccccc2)c(C23CC4CC(CC(C4)C2)C3)c1 | 251 to 253
CCN(CC)CCNC(=O)c1cccc2nc3cc(Br)ccc3nc12 | 107 to 109
N#CN=C(Nc1cccnc1)NC(NC(=O)c1ccc(Cl)cc1)C(Cl)(Cl)Cl (stereo not given) | 126 to 128
Cc1cc2c3c(ccn2n1)CCC3CCNC(=O)C1CC1 (stereo not given) | 112 to 113
O=C(NCc1ccc(C(F)(F)F)cc1)Nc1cccc2[nH]ccc12 | 178
O=C(NOC1CCCCO1)c1ccccc1 (stereo not given) | 130 to 134
COC(=O)c1c(-c2ccccc2C)c2cc(C)c(C)cc2[nH]c1=O | 288 to 289
CC(=O)Nc1ccc(OS(N)(=O)=O)cc1 | 180 to 181
COC(=O)C(C(=O)N1CCOCC1)C(c1ccccc1)c1cc2cc(Br)ccc2nc1OC (stereo not given) | 206 to 208
CCCCCNC(=O)[C@@H]1CCCN1C(=O)[C@@H](N)CC | 140 to 141
CC#CCOc1ccc(S(=O)(=O)C(CCCCCC#N)C(=O)NO)cc1 (stereo not given) | 120
COc1ccc(C=CC(=O)c2ccccc2Br)c(OC)c1 | 91.3 to 91.8
CN(C)Cc1cccc2nc3n(c12)CCCN3c1ccc(Cl)cc1Cl | 158 to 159
NS(=O)(=O)c1ccc(-n2nc(C(F)(F)F)cc2-c2ccc(-c3ccco3)cc2)cn1 | 140 to 170

Compound | melting point [°C]
COc1c(C)c(C)c2c(c1C)C(C(=O)O)C(C)(C)O2 (stereo not given) | 185 to 187
O=C1c2ccc(F)cc2C(=O)N1CC(=O)N1c2ccccc2N(Cc2ccccc2)C(=O)[C@H]2CCC[C@H]21 (relative stereo) | 235 to 236
Brc1ccc(-n2ccc3cc(OCc4ccccc4)ccc32)cc1 | 118
CC(=O)C(C#N)c1ccccc1 (stereo not given) | > 215
O=C(Nc1cccc2c1C(=O)c1c-2n[nH]c1-c1ccc(C(=O)NN2CCCCC2)s1)NN1CCOCC1 | 189 to 191
O=S1(=O)c2ccccc2C(c2ccccc2)N1CCCN1CCN(c2ccc(F)cc2)CC1 (racemic) | 182
O=c1nc(N2CCCc3ccccc32)sc2ncccc12 | 174 to 175
NC(=O)CC1CN=C(c2cc3cc(OC(F)(F)F)cc(NS(=O)(=O)c4cccs4)c3[nH]2)S1 (stereo not given) | 239 to 240
Cc1cc2cc(C3CCN(C(=O)C4CC4)CC3)oc2cc1C | 80 to 83
CN1CCCc2ccc(O)cc21 | 97 to 98
[N-]=[N+]=C(C(=O)CC1CC(=O)N1)C(=O)OCc1ccc([N+](=O)[O-])cc1 (stereo not given) | 114 to 116
O=Cc1cc(N2CCN(Cc3ccccc3)CC2)ccc1O | 101 to 103
CCOC(=O)CCc1cn(-c2ccccc2)nc1OCc1ccc(OCc2nc(-c3ccco3)oc2C)c(OC)c1 | 97 to 98
COc1ccc(-c2snnc2-c2ccccc2)cc1 | 56.5 to 58
CCCc1sc2nc(CN(CC)CC)c(C(=O)OCC)c(-c3ccc(Cl)cc3)c2c1C | 82 to 83
CCCC[C@@H](O)[C@H](O)CCCC | 48 to 49
O=c1c2ccc([N+](=O)[O-])cc2nc2n1CCC2=Cc1ccccc1 | 196 to 197
CC(C)N1C(=O)c2ccccc2Oc2ccccc21 | 102 to 103
c1ccc(-c2ccc3oc(COc4ccc(CCCn5ccnc5)cc4)nc3c2)cc1 | 123 to 124
CC(=O)OC1CSC(Oc2cccnc2C(=O)N(C)C)C(OC(C)=O)C1OC(C)=O (stereo not given) | 85 to 89
O=C(NCc1ccccc1)c1ccccc1I | 122 to 123
C=C(C)C(=O)OC(COc1ccc(C(=O)c2ccccc2)c(O)c1)COc1ccc(C(=O)c2ccccc2)c(O)c1 | 138 to 139
CC[C@H](NS(=O)(=O)c1ccc(OC)cc1)C(=O)OC(C)(C)C | 82
CNC(=O)N(O)CCOc1ccc2c(c1)CCN(CCCc1ccccc1)C2=O | 138 to 139
COc1cccc(-c2ccc3ccccc3c2Oc2ccc(C=O)cc2)c1 | 125 to 126

Compound | melting point [°C]
COc1cc2c(O)c(S(=O)(=O)N(C)C)cnc2cc1C | 295 to 297
COc1ccc(S(=O)(=O)Nc2cccnc2Nc2ccc(C(=O)O)cc2)cc1 | 248 to 250
O=c1[nH]c(=Cc2ccc3ccccc3n2)c(=O)[nH]c1=Cc1ccc(F)cc1 | 319 to 320
CCOC(=O)C1C(=O)C=C(c2ccccc2)N=C1c1ccccc1 (stereo not given) | 177 to 179
Cc1ccc(I)cc1Cc1ccc(-c2ccc(F)cc2)s1 | 109 to 110
OC1CSC(Oc2ccc(Cl)nc2)C(O)C1O (stereo not given) | 218
CC(C(=O)O)c1cccc(Sc2ccccc2Cl)c1O (stereo not given) | 143 to 145
COC(=O)c1ccc(OCCNC(=O)C2Cc3ccccc3N2S(=O)(=O)c2ccc(-c3ccc(F)cc3OC)cc2)cc1F (stereo not given) | 73 to 80
NC(=O)N(O)[C@@H]1COc2cc(OCc3ccccc3)ccc21 | 192 to 193
COc1cc(C(=O)O)cc(CCc2ccccc2)c1C(=O)O | 242 to 244
COC(=O)c1cc(O)c2cc(N3CCOCC3)ccc2c1 | 231 to 234
O=C(O)CCc1cnn(-c2ccccc2)c1-c1ccccc1 | 159 to 160
CC(C)(C)c1ccccc1N1CCN(C(=O)c2ncoc2-c2ccccc2)CC1 | 146 to 148
CC[C@H](N)C(=O)N1c2ccccc2C[C@H]1C(=O)NC | 138 to 139
O=S1(=O)c2ccccc2N(c2ccc(O)cc2)c2ccccc21 | 308 to 311
CC(=O)n1cnc2c(CBr)cccc21 | 109 to 112
COc1cc2c(Oc3ccc(Cl)cc3F)ncnc2cc1OCc1ccncc1 | 197 to 198
CC(=O)c1ccc2c(c1)ncn2-c1cccc(-c2cccnc2)c1 | 195 to 197
CC1(C#N)CN(C(c2ccccc2)c2ccccc2)C1 | 78 to 80
COC(=O)c1c(Cl)nc2cc3c(cc2c1CN1CCN(C)CC1)OCCO3 | 143
CC1CC2C3CCC4=CC(=O)C=CC4(C)C3=CCC2(C)C1C(=O)CN1CCN(c2cc(N3CCC4(CC3)OCCO4)nc(N3CCC4(CC3)OCCO4)n2)CC1 (stereo not given) | 156 to 174
CCOC(=O)C1=C(O)c2cc3ccccc3n2CCC1 | 74 to 81
O=C(NCC1CC1)c1c(NC(=O)c2cc(C(F)(F)F)nn2-c2ncccc2Cl)c(Cl)cc2cn[nH]c12 | > 250
Ic1ncnc2c1ncn2Cc1ccccc1 | 152 to 153
Nc1ccc(Oc2ccccc2C(=O)Oc2ccccc2)cc1 | 102

Compound | melting point [°C]
Cn1c2ccc([N+](=O)[O-])cc2c2c3c(ccc21)C(=O)OC3=O | > 300
Cn1nc2c(N)nc3c(c2c1CCNC(=O)N1CCOCC1)CCCC3 | 187 to 188
CCOC(OCC)c1coc2cc3c(cc2c1=O)OCO3 | 123 to 125
Cn1cc(C=O)cc1C(=O)O | 178 to 180
O=[N+]([O-])c1ccc(N2CCN(Cc3ccccc3)CC2)nc1CS(=O)(=O)c1ccccc1 | 175 to 176
CC(C)(C)C(=O)C(Br)C(Br)C(=O)C(C)(C)C (stereo not given) | 107 to 109
O=C(O)CCc1cc2cc(Cl)ccc2n1S(=O)(=O)c1ccccc1 | 165 to 168
COC1=C(C)C(=O)c2ccccc2C1=O | 93 to 94
FC(F)(F)c1cc(OCc2ccc(-c3ccccc3-c3nnn[nH]3)cc2)c2c(n1)CCCC2 | 218 to 219
CCc1cccc(CC)c1NCC(=O)NN | 71 to 73
CC(C)C(NC(=O)C(C)(N)c1ccc2ccccc2c1)C(=O)Nc1nn(C(=O)OCc2ccccc2)c(=S)s1 (stereo not given) | 125 to 132
C[C@H](C(=O)O)n1ncn(-c2ccc(OCC(F)(F)C(F)F)cc2)c1=O | 162 to 165
CC/C(=C\c1cccc(OCc2nc(-c3ccc(C(F)(F)F)cc3)oc2C)c1)Cn1oc(=O)[nH]c1=O | 124 to 125
CC(C)(C)OC(=O)NCC1CN[C@@H]2CCO[C@H]12 (relative stereo) | 59 to 67
C=C(Cc1ccccc1C)C(=O)O | 82 to 83
CC1=Nc2c(Br)cc(Br)cc2S(=O)(=O)N1 | 287 to 289
COC(=O)c1snc(-c2cc(OC)c(Cl)cc2F)c1N | 121 to 124
Cc1cccc(NC(=O)NCC(=O)N(CC(=O)OC2CCCCC2)c2ccccc2)c1 | 176
Nc1ccc(Sc2c(NCC=Cc3ccccc3)cc(C(=O)O)cc2S(N)(=O)=O)cc1 | 228 to 232
CCOC(=O)CN(C)S(=O)(=O)c1ccsc1C(=O)OC | 84 to 85
N#CNC(=S)Nc1ccc(C#N)cc1 | > 250
CC(CNC(=O)c1ccc(Cl)nc1)Cn1ccnc1 (stereo not given) | 102 to 104
CN(c1ccc(Cl)cc1)C1CCN(c2ccc(OC[C@@]3(C)Cn4cc([N+](=O)[O-])nc4O3)cc2)CC1 | 174 to 175
CC(C)c1nc(CO)n(Cc2cnc3ccccc3c2)c1Sc1cc(Cl)cc(Cl)c1 | 167 to 170
CCNC(=O)CCCNC(=O)CCCNC(=O)CCCNC(=O)CCCNC(=O)OC(C)(C)C | 196 to 197
